Data published in PubChem BioAssay (NCI).
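Cells were grown in 96-well plates and exposed to each compound for 48 hours at five concentrations; endpoints were interpolated linearly between bracketing concentrations, or set to the highest concentration if not reached. GI50 = concentration required for 50% inhibition of growth. TGI is the concentration that stops growth completely.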

Assays:
Experiment in all cases: NCI-60 cell line screen, 48 h
SN12C renal = system: SN12C renal
OVCAR-8 ovarian = system: OVCAR-8 ovarian
OVCAR-5 ovarian = system: OVCAR-5 ovarian
PC-3 prostate = system: PC-3 prostate
SF-295 CNS = system: SF-295 CNS
NCI-H23 lung = system: NCI-H23 lung
DU-145 prostate = system: DU-145 prostate
SK-MEL-2 melanoma = system: SK-MEL-2 melanoma
A549 NSCLC = system: A549 NSCLC
SR leukemia = system: SR leukemia
ACHN renal = system: ACHN renal
HS 578T breast = system: HS 578T breast
NCI-H460 lung = system: NCI-H460 lung
HOP-62 NSCLC = system: HOP-62 NSCLC
NCI/ADR-RES ovarian = system: NCI/ADR-RES ovarian
786-0 renal = system: 786-0 renal
RXF 393 renal = system: RXF 393 renal
A498 renal = system: A498 renal
IGROV1 ovarian = system: IGROV1 ovarian
SF-268 CNS = system: SF-268 CNS
MDA-MB-435 = system: MDA-MB-435
SW-620 colon = system: SW-620 colon
MCF7 breast = system: MCF7 breast
CCRF-CEM leukemia = system: CCRF-CEM leukemia
SK-MEL-28 melanoma = system: SK-MEL-28 melanoma
BT-549 breast = system: BT-549 breast
U251 CNS = system: U251 CNS
MDA-MB-231 breast = system: MDA-MB-231 breast
SF-539 CNS = system: SF-539 CNS
NCI-H226 lung = system: NCI-H226 lung
OVCAR-3 ovarian = system: OVCAR-3 ovarian
K-562 leukemia = system: K-562 leukemia
LOX IMVI melanoma = system: LOX IMVI melanoma
HCT-116 colon = system: HCT-116 colon
HT29 colon = system: HT29 colon
SK-OV-3 ovarian = system: SK-OV-3 ovarian
EKVX NSCLC = system: EKVX NSCLC
OVCAR-4 ovarian = system: OVCAR-4 ovarian
HOP-92 NSCLC = system: HOP-92 NSCLC
COLO 205 colon = system: COLO 205 colon
HCT-15 colon = system: HCT-15 colon
HCC-2998 colon = system: HCC-2998 colon
NCI-H522 lung = system: NCI-H522 lung
UO-31 renal = system: UO-31 renal
SNB-75 CNS = system: SNB-75 CNS
RPMI-8226 leukemia = system: RPMI-8226 leukemia
TK-10 renal = system: TK-10 renal
CAKI-1 renal = system: CAKI-1 renal
KM12 colon = system: KM12 colon
HL-60(TB) leukemia = system: HL-60(TB) leukemia
T-47D breast = system: T-47D breast
MOLT-4 leukemia = system: MOLT-4 leukemia
SNB-19 CNS = system: SNB-19 CNS
UACC-62 melanoma = system: UACC-62 melanoma
M14 melanoma = system: M14 melanoma
UACC-257 melanoma = system: UACC-257 melanoma

CC(=O)OC1OC([C@H]2c3cccc(O)c3C(=O)c3c(O)cc(C)cc32)C(O)C(O)C1O (some centres not stated)
GI50 (SN12C renal): < 25.9 nM
GI50 (OVCAR-8 ovarian): 29.4 nM
TGI (OVCAR-8 ovarian): 87.3 nM
GI50 (OVCAR-5 ovarian): < 29.6 nM
TGI (OVCAR-5 ovarian): 4710 nM
TGI (PC-3 prostate): 1090 nM
GI50 (SF-295 CNS): 81.7 nM
TGI (SF-295 CNS): 239 nM
GI50 (NCI-H23 lung): < 16.1 nM
GI50 (DU-145 prostate): 281 nM
TGI (DU-145 prostate): 12500 nM
GI50 (SK-MEL-2 melanoma): 96.2 nM
TGI (SK-MEL-2 melanoma): 2630 nM
GI50 (A549 NSCLC): 47.9 nM
TGI (A549 NSCLC): 15100 nM
GI50 (SR leukemia): 30.8 nM
TGI (SR leukemia): 119 nM
GI50 (ACHN renal): 72.9 nM
TGI (ACHN renal): 437 nM
TGI (HS 578T breast): 728 nM
GI50 (NCI-H460 lung): 105 nM
TGI (NCI-H460 lung): 1410 nM
GI50 (HOP-62 NSCLC): 65 nM
TGI (HOP-62 NSCLC): 1930 nM
GI50 (NCI/ADR-RES ovarian): 38.3 nM
TGI (NCI/ADR-RES ovarian): 5950 nM
GI50 (786-0 renal): 33.4 nM
TGI (786-0 renal): 1990 nM
GI50 (RXF 393 renal): < 26.7 nM
TGI (RXF 393 renal): 346 nM
GI50 (A498 renal): 105 nM
TGI (A498 renal): 589 nM
GI50 (IGROV1 ovarian): 224 nM
TGI (IGROV1 ovarian): > 100000 nM
GI50 (SF-268 CNS): 78.8 nM
TGI (SF-268 CNS): 1740 nM
GI50 (MDA-MB-435): 81.7 nM
TGI (MDA-MB-435): 2720 nM
GI50 (SW-620 colon): 112 nM
TGI (SW-620 colon): 14100 nM
GI50 (MCF7 breast): 287 nM
TGI (MCF7 breast): 803 nM
GI50 (CCRF-CEM leukemia): 444 nM
TGI (CCRF-CEM leukemia): 2250 nM
GI50 (SK-MEL-28 melanoma): 191 nM
TGI (SK-MEL-28 melanoma): > 23200 nM
GI50 (BT-549 breast): 356 nM
TGI (BT-549 breast): 1030 nM
GI50 (U251 CNS): < 16.4 nM
TGI (U251 CNS): 244 nM
GI50 (MDA-MB-231 breast): 18.8 nM
TGI (MDA-MB-231 breast): 67.1 nM
GI50 (SF-539 CNS): 121 nM
TGI (SF-539 CNS): 7080 nM
GI50 (NCI-H226 lung): < 10 nM
TGI (NCI-H226 lung): 45.5 nM
GI50 (OVCAR-3 ovarian): 29 nM
TGI (OVCAR-3 ovarian): 88.5 nM
GI50 (K-562 leukemia): 203 nM
TGI (K-562 leukemia): > 33500 nM
GI50 (LOX IMVI melanoma): < 14.6 nM
TGI (LOX IMVI melanoma): < 25.1 nM
GI50 (HCT-116 colon): < 10 nM
TGI (HCT-116 colon): 1180 nM
GI50 (HT29 colon): 116 nM
TGI (HT29 colon): > 100000 nM
GI50 (SK-OV-3 ovarian): 57.6 nM
TGI (SK-OV-3 ovarian): 12300 nM
GI50 (EKVX NSCLC): 198 nM
TGI (EKVX NSCLC): 3040 nM
GI50 (OVCAR-4 ovarian): < 40.2 nM
TGI (OVCAR-4 ovarian): > 89200 nM
GI50 (HOP-92 NSCLC): 62.3 nM
TGI (HOP-92 NSCLC): 194 nM
GI50 (COLO 205 colon): 42.1 nM
GI50 (HCT-15 colon): 38.5 nM
TGI (HCT-15 colon): 2000 nM
GI50 (HCC-2998 colon): < 10 nM
GI50 (NCI-H522 lung): 47.9 nM
TGI (NCI-H522 lung): 19900 nM
GI50 (UO-31 renal): 138 nM
GI50 (SNB-75 CNS): 29.7 nM
TGI (SNB-75 CNS): 2740 nM
GI50 (RPMI-8226 leukemia): 77.9 nM
TGI (RPMI-8226 leukemia): 200 nM
GI50 (TK-10 renal): 254 nM
TGI (TK-10 renal): 1750 nM
GI50 (CAKI-1 renal): 77.3 nM
TGI (CAKI-1 renal): 544 nM
GI50 (KM12 colon): 202 nM
TGI (KM12 colon): 624 nM
GI50 (HL-60(TB) leukemia): 15.7 nM
TGI (HL-60(TB) leukemia): 47.2 nM
GI50 (T-47D breast): 31.9 nM
TGI (T-47D breast): > 41100 nM
GI50 (MOLT-4 leukemia): 1030 nM
GI50 (SNB-19 CNS): 34.2 nM
GI50 (UACC-62 melanoma): < 21.9 nM
TGI (UACC-62 melanoma): 1410 nM
GI50 (M14 melanoma): < 21.4 nM
TGI (M14 melanoma): 3850 nM
GI50 (UACC-257 melanoma): < 13.9 nM
